Measurements from ChEMBL document CHEMBL5728462, “Disubstituted compounds for treatment of medical disorders” (2021).

Molecular target: Complement factor D (Homo sapiens, UniProt P00746)
Assay: Human Factor D Assay: Human Factor D (purified from human serum, Complement Technology, Inc.) at 80 nM final concentration is incubated with test compound at various concentrations for 5 minutes at room temperature in 50 mM Tris, 1M NaCl, pH 7.5. A synthetic substrate Z-L-Lys-SBzl and DTNB (Ellman's reagent) are added to final concentrations of 100 μM each. Absorbance at 405 nm (A405) is recorded at 30 second intervals for 30 minutes using a microplate spectrophotometer. IC50 values are calculated by nonlinear regression of complement Factor D reaction rates as a function of test compound concentration.

Chain of Complement factor D (P00746 whole entry): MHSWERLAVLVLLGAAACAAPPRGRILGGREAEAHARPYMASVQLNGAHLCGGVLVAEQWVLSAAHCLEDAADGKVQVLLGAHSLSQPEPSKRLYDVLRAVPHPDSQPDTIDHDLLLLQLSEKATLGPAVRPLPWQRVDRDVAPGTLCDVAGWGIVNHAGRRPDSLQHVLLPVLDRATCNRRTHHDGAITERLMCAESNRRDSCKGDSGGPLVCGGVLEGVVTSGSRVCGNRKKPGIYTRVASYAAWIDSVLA

CC(=O)c1nn(CC(=O)N2C[C@H](F)C[C@H]2C(=O)Nc2cccc(Br)n2)c2ccc(-c3cnc(S(C)(=O)=NC(=O)OC(C)(C)C)nc3)cc12 (stereo partly specified)
IC50: < 1000 nM
